Measured values published in US12491170B2, “Stable treprostinil prodrugs” (United Therapeutics Corporation, priority 2020, dated 2025).
Like-named read-outs stand apart in the source and are kept apart here.

What was measured:
[1] = Stability in liver microsomes, dog
[2] = Stability in cryopreserved hepatocytes, human; conditions: for AUC: human
[3] = dog
[4] = Stability in human subcutaneous skin homogenate; conditions: for AUC: human
[5] = rat
[6] = Stability in liver microsomes, human; conditions: for AUC: human
[7] = Stability in liver microsomes, rat
[8] = Stability in cryopreserved hepatocytes, rat; conditions: for AUC: rat
[9] = Stability in cryopreserved hepatocytes, dog; conditions: for AUC: dog

CCCCCC(CCC1C(O)CC2Cc3c(cccc3OCC(=O)O)CC21)OC(=O)C1CCCN1 (stereo not shown) [XXXVI]
Trep Concentration 0 min [1]: 0.102 µM | Trep Concentration 10 min [1]: 0.199 µM | Trep Concentration 20 min [1]: 0.309 µM | Trep Concentration 30 min [1]: 0.353 µM | Trep Concentration 60 min [1]: 0.483 µM | Trep Concentration (μM) 0 min [2]: 0 µM | Trep Concentration (μM) 15 min [2]: 0.502 µM | Trep Concentration (μM) 30 min [2]: 0.512 µM | Trep Concentration (μM) 60 min [2]: 0.45 µM | Trep Concentration (μM) 120 min [2]: 0.482 µM | AUC [2]: 53.76 µmol·min/L | AUC [3]: 19.90 µmol·min/L | Trep Concentration 0 min [4]: 0 µM | Trep Concentration 30 min [4]: 0.328 µM | Trep Concentration 60 min [4]: 0.559 µM | Trep Concentration 120 min [4]: 0.852 µM | AUC [4]: 60.56 µmol·min/L | AUC [5]: 20.24 µmol·min/L | Trep Concentration 0 min [6]: 0.443 µM | Trep Concentration 10 min [6]: 0.502 µM | Trep Concentration 20 min [6]: 0.478 µM | Trep Concentration 30 min [6]: 0.379 µM | Trep Concentration 60 min [6]: 0.316 µM | AUC [6]: 24.34 µmol·min/L | Trep Concentration 0 min [7]: 0.154 µM | Trep Concentration 10 min [7]: 0.242 µM | Trep Concentration 20 min [7]: 0.326 µM | Trep Concentration 30 min [7]: 0.342 µM | Trep Concentration 60 min [7]: 0.463 µM | Trep Concentration (μM) 0 min [8]: 0.00925 µM | Trep Concentration (μM) 15 min [8]: 0.494 µM | Trep Concentration (μM) 30 min [8]: 0.511 µM | Trep Concentration (μM) 60 min [8]: 0.505 µM | Trep Concentration (μM) 120 min [8]: 0.499 µM | AUC [8]: 56.67 µmol·min/L | Trep Concentration (μM) 0 min [9]: 0 µM | Trep Concentration (μM) 15 min [9]: 0.229 µM | Trep Concentration (μM) 30 min [9]: 0.276 µM | Trep Concentration (μM) 60 min [9]: 0.264 µM | Trep Concentration (μM) 120 min [9]: 0.279 µM | AUC [9]: 29.90 µmol·min/L

CCCCCC(CCC1C(O)CC2Cc3c(cccc3OCC(=O)O)CC21)OC (stereo not shown) [XLV]
Trep Concentration 0 min [1]: 0 µM | Trep Concentration 10 min [1]: 0 µM | Trep Concentration 20 min [1]: 0.00323 µM | Trep Concentration 30 min [1]: 0.00529 µM | Trep Concentration 60 min [1]: 0.00637 µM | Trep Concentration (μM) 0 min [2]: 0 µM | Trep Concentration (μM) 15 min [2]: 0.0417 µM | Trep Concentration (μM) 30 min [2]: 0.0533 µM | Trep Concentration (μM) 60 min [2]: 0.0724 µM | Trep Concentration (μM) 120 min [2]: 0.0734 µM | AUC [2]: 7.29 µmol·min/L | AUC [3]: 0.23 µmol·min/L | Trep Concentration 0 min [4]: 0 µM | Trep Concentration 30 min [4]: 0 µM | Trep Concentration 60 min [4]: 0 µM | Trep Concentration 120 min [4]: 0 µM | AUC [4]: 0.00 µmol·min/L | AUC [5]: 0.83 µmol·min/L | Trep Concentration 0 min [6]: 0.00583 µM | Trep Concentration 10 min [6]: 0.104 µM | Trep Concentration 20 min [6]: 0.156 µM | Trep Concentration 30 min [6]: 0.21 µM | Trep Concentration 60 min [6]: 0.292 µM | AUC [6]: 11.21 µmol·min/L | Trep Concentration 0 min [7]: 0 µM | Trep Concentration 10 min [7]: 0.00607 µM | Trep Concentration 20 min [7]: 0.00992 µM | Trep Concentration 30 min [7]: 0.0162 µM | Trep Concentration 60 min [7]: 0.023 µM | Trep Concentration (μM) 0 min [8]: 0 µM | Trep Concentration (μM) 15 min [8]: 0.00378 µM | Trep Concentration (μM) 30 min [8]: 0.00483 µM | Trep Concentration (μM) 60 min [8]: 0.00537 µM | Trep Concentration (μM) 120 min [8]: 0.00521 µM | AUC [8]: 0.56 µmol·min/L | Trep Concentration (μM) 0 min [9]: 0 µM | Trep Concentration (μM) 15 min [9]: 0 µM | Trep Concentration (μM) 30 min [9]: 0 µM | Trep Concentration (μM) 60 min [9]: 0 µM | Trep Concentration (μM) 120 min [9]: 0 µM | AUC [9]: 0.00 µmol·min/L

CCCCCC(CCC1C(O)CC2Cc3c(cccc3OCC(=O)O)CC21)OC(=O)C(C)C (stereo not shown) [LXVII]
Trep Concentration 0 min [1]: 0.987 µM | Trep Concentration 10 min [1]: 0.972 µM | Trep Concentration 20 min [1]: 0.982 µM | Trep Concentration 30 min [1]: 0.993 µM | Trep Concentration 60 min [1]: 0.816 µM | Trep Concentration (μM) 0 min [2]: 0.0174 µM | Trep Concentration (μM) 15 min [2]: 0.631 µM | Trep Concentration (μM) 30 min [2]: 0.572 µM | Trep Concentration (μM) 60 min [2]: 0.506 µM | Trep Concentration (μM) 120 min [2]: 0.446 µM | AUC [2]: 58.62 µmol·min/L | AUC [3]: 56.58 µmol·min/L | Trep Concentration 0 min [4]: 0 µM | Trep Concentration 30 min [4]: 0.224 µM | Trep Concentration 60 min [4]: 0.408 µM | Trep Concentration 120 min [4]: 0.657 µM | AUC [4]: 44.79 µmol·min/L | AUC [5]: 25.20 µmol·min/L | Trep Concentration 0 min [6]: 1.02 µM | Trep Concentration 10 min [6]: 0.877 µM | Trep Concentration 20 min [6]: 0.755 µM | Trep Concentration 30 min [6]: 0.664 µM | Trep Concentration 60 min [6]: 0.393 µM | AUC [6]: 40.60 µmol·min/L | Trep Concentration 0 min [7]: 0.281 µM | Trep Concentration 10 min [7]: 0.369 µM | Trep Concentration 20 min [7]: 0.419 µM | Trep Concentration 30 min [7]: 0.471 µM | Trep Concentration 60 min [7]: 0.433 µM | Trep Concentration (μM) 0 min [8]: 0 µM | Trep Concentration (μM) 15 min [8]: 0.215 µM | Trep Concentration (μM) 30 min [8]: 0.217 µM | Trep Concentration (μM) 60 min [8]: 0.189 µM | Trep Concentration (μM) 120 min [8]: 0.172 µM | AUC [8]: 21.77 µmol·min/L | Trep Concentration (μM) 0 min [9]: 0.09 µM | Trep Concentration (μM) 15 min [9]: 0.616 µM | Trep Concentration (μM) 30 min [9]: 0.554 µM | Trep Concentration (μM) 60 min [9]: 0.459 µM | Trep Concentration (μM) 120 min [9]: 0.42 µM | AUC [9]: 55.64 µmol·min/L

CCCCCC(CCC1C(O)CC2Cc3c(cccc3OCC(=O)O)CC21)OC(N)=O (stereo not shown) [XLII]
Trep Concentration 0 min [1]: 0.335 µM | Trep Concentration 10 min [1]: 0.312 µM | Trep Concentration 20 min [1]: 0.311 µM | Trep Concentration 30 min [1]: 0.308 µM | Trep Concentration 60 min [1]: 0.323 µM | Trep Concentration (μM) 0 min [2]: 0.297 µM | Trep Concentration (μM) 15 min [2]: 0.274 µM | Trep Concentration (μM) 30 min [2]: 0.298 µM | Trep Concentration (μM) 60 min [2]: 0.275 µM | Trep Concentration (μM) 120 min [2]: 0.217 µM | AUC [2]: 31.93 µmol·min/L | AUC [3]: 18.91 µmol·min/L | Trep Concentration 0 min [4]: 0 µM | Trep Concentration 30 min [4]: 0 µM | Trep Concentration 60 min [4]: 0 µM | Trep Concentration 120 min [4]: 0 µM | AUC [4]: 0.00 µmol·min/L | AUC [5]: 18.22 µmol·min/L | Trep Concentration 0 min [6]: 0.361 µM | Trep Concentration 10 min [6]: 0.297 µM | Trep Concentration 20 min [6]: 0.293 µM | Trep Concentration 30 min [6]: 0.273 µM | Trep Concentration 60 min [6]: 0.219 µM | AUC [6]: 16.45 µmol·min/L | Trep Concentration 0 min [7]: 0.322 µM | Trep Concentration 10 min [7]: 0.296 µM | Trep Concentration 20 min [7]: 0.314 µM | Trep Concentration 30 min [7]: 0.308 µM | Trep Concentration 60 min [7]: 0.29 µM | Trep Concentration (μM) 0 min [8]: 0.33 µM | Trep Concentration (μM) 15 min [8]: 0.309 µM | Trep Concentration (μM) 30 min [8]: 0.299 µM | Trep Concentration (μM) 60 min [8]: 0.307 µM | Trep Concentration (μM) 120 min [8]: 0.3 µM | AUC [8]: 36.65 µmol·min/L | Trep Concentration (μM) 0 min [9]: 0.296 µM | Trep Concentration (μM) 15 min [9]: 0.242 µM | Trep Concentration (μM) 30 min [9]: 0.197 µM | Trep Concentration (μM) 60 min [9]: 0.155 µM | Trep Concentration (μM) 120 min [9]: 0.137 µM | AUC [9]: 21.37 µmol·min/L

CCCCCC(CCC1C(O)CC2Cc3c(cccc3OCC(=O)O)CC21)OC(=O)COc1ccc(O)cc1 (stereo not shown) [LIV]
Trep Concentration 0 min [1]: 0.307 µM | Trep Concentration 10 min [1]: 0.544 µM | Trep Concentration 20 min [1]: 0.678 µM | Trep Concentration 30 min [1]: 0.729 µM | Trep Concentration 60 min [1]: 0.777 µM | Trep Concentration (μM) 0 min [2]: 0.0156 µM | Trep Concentration (μM) 15 min [2]: 0.58 µM | Trep Concentration (μM) 30 min [2]: 0.47 µM | Trep Concentration (μM) 60 min [2]: 0.475 µM | Trep Concentration (μM) 120 min [2]: 0.461 µM | AUC [2]: 54.60 µmol·min/L | AUC [3]: 39.99 µmol·min/L | Trep Concentration 0 min [4]: 0 µM | Trep Concentration 30 min [4]: 0.486 µM | Trep Concentration 60 min [4]: 0.694 µM | Trep Concentration 120 min [4]: 0.848 µM | AUC [4]: 71.25 µmol·min/L | AUC [5]: 46.08 µmol·min/L | Trep Concentration 0 min [6]: 0.908 µM | Trep Concentration 10 min [6]: 0.679 µM | Trep Concentration 20 min [6]: 0.564 µM | Trep Concentration 30 min [6]: 0.463 µM | Trep Concentration 60 min [6]: 0.338 µM | AUC [6]: 31.30 µmol·min/L | Trep Concentration 0 min [7]: 0.849 µM | Trep Concentration 10 min [7]: 0.784 µM | Trep Concentration 20 min [7]: 0.765 µM | Trep Concentration 30 min [7]: 0.709 µM | Trep Concentration 60 min [7]: 0.811 µM | Trep Concentration (μM) 0 min [8]: 0.0862 µM | Trep Concentration (μM) 15 min [8]: 0.512 µM | Trep Concentration (μM) 30 min [8]: 0.426 µM | Trep Concentration (μM) 60 min [8]: 0.441 µM | Trep Concentration (μM) 120 min [8]: 0.455 µM | AUC [8]: 51.41 µmol·min/L | Trep Concentration (μM) 0 min [9]: 0.00351 µM | Trep Concentration (μM) 15 min [9]: 0.295 µM | Trep Concentration (μM) 30 min [9]: 0.273 µM | Trep Concentration (μM) 60 min [9]: 0.262 µM | Trep Concentration (μM) 120 min [9]: 0.262 µM | AUC [9]: 30.24 µmol·min/L
